The values that follow come from US10654808B2, “Tyrosine kinase inhibitor and pharmaceutical composition comprising same” (GUANGDONG RAYNOVENT BIOTECH CO., LTD., priority 2015, dated 2020).

What all share (type): biochemical
One assay has as its target T1, PDGFRB (Homo sapiens, UniProt P09619).
T1 construct: purchased Millipore
Briefly: Z'-LYTE in vitro enzyme activity assay, PDGFRB. The note with it: 100 μM ATP, 60 minutes, room temperature; read-out: IC50 detected by Z'-LYTE, PDGFRB. How it is done:
(§1) The enzyme activity was measured by Z′-LYTE™ Detection Kinase Assay. The IC50 value of the compounds was used as an index to evaluate the inhibitory effect of the compounds on VEGFR2, FGFR1 and PDGFRB.
(§2) Recombinant human VEGFR2 and FGFR1 proteases were purchased from Life technology, PDGFRB Protease was purchased from Millipore.
(§3) Z-LYTE™ Kit Tyr1 and Tyr4 were purchased from Life technology. Multi-microplate reader, Envision (PerkinElmer) read board was used.
(§4) The test compounds were diluted 3 times with a concentration gradient, the final concentration was from 10 μM to 0.17 nM with a total of 11 concentrations, and each concentration had two parallel holes; the content of DMSO in the assay was 1%.
40 nM PDGFRB protein kinase, 2 μM Tyr4 peptide, 100 μM ATP, 50 mM HEPES (pH 7.5), 10 mM MgCl2, 1 mM EGTA, 0.01% BRIJ-35, 2 mM MnCl2, 1 mM DTT. The detector plate was Black Proxiplate 384-Plus plate (PerkinElmer), the reaction was performed at room temperature for 60 minutes, and the reaction system was 10 μl.
(§5) The reaction was stopped by adding 5 μl of DV reagent B (1:128) to the kinase reaction solution and incubated at 23° C. for 60 minutes. The Envision instrument was used to read the plate.
(§6) The data was converted to phosphorylation rate and inhibition rate and the 4 parameter curve fitting (Model 205 in XLFIT5, iDBS) was used to get IC50 data of the compounds.

For a further assay, the target named is T2, VEGFR2 (Homo sapiens, UniProt P35968).
T2 construct: purchased Life technology
The experiment in a line: Z'-LYTE in vitro enzyme activity assay, VEGFR2. The note with it: 100 μM ATP, 60 minutes, room temperature; read-out: IC50 detected by Z'-LYTE, VEGFR2. How it is done:
as §1, §2, §3, §4
3 nM VEGFR2 protein kinase, 2 μM Tyr1 peptide, 100 μM ATP, 50 mM HEPES (pH 7.5), 10 mM MgCl2, 1 mM EGTA, 0.01% BRIJ-35. The detector plate was Black Proxiplate 384-Plus plate (PerkinElmer), the reaction was performed at room temperature for 60 minutes, and the reaction system was 10 μl.
as §5, §6

A further assay has as its target T3, FGFR1 (Homo sapiens, UniProt P11362).
T3 construct: purchased Life technology
Briefly: Z'-LYTE in vitro enzyme activity assay, FGFR1. The note with it: 25 μM ATP, 60 minutes, room temperature; read-out: IC50 detected by Z'-LYTE, FGFR1. Here is the method:
as §1, §2, §3, §4
1 nM FGFR1 protein kinase, 2 μM Tyr4 peptide, 25 μM ATP, 50 mM HEPES (pH 7.5), 10 mM MgCl2, 1 mM EGTA, 0.01% BRIJ-35, 2 mM MnCl2, 1 mM DTT. The detector plate was Black Proxiplate 384-Plus plate (PerkinElmer), the reaction was performed at room temperature for 60 minutes, and the reaction system was 10 μl.
as §5, §6

A value given as a limit tells only on which side of the number the result lay.

T1 sequence (P09619 33-1106): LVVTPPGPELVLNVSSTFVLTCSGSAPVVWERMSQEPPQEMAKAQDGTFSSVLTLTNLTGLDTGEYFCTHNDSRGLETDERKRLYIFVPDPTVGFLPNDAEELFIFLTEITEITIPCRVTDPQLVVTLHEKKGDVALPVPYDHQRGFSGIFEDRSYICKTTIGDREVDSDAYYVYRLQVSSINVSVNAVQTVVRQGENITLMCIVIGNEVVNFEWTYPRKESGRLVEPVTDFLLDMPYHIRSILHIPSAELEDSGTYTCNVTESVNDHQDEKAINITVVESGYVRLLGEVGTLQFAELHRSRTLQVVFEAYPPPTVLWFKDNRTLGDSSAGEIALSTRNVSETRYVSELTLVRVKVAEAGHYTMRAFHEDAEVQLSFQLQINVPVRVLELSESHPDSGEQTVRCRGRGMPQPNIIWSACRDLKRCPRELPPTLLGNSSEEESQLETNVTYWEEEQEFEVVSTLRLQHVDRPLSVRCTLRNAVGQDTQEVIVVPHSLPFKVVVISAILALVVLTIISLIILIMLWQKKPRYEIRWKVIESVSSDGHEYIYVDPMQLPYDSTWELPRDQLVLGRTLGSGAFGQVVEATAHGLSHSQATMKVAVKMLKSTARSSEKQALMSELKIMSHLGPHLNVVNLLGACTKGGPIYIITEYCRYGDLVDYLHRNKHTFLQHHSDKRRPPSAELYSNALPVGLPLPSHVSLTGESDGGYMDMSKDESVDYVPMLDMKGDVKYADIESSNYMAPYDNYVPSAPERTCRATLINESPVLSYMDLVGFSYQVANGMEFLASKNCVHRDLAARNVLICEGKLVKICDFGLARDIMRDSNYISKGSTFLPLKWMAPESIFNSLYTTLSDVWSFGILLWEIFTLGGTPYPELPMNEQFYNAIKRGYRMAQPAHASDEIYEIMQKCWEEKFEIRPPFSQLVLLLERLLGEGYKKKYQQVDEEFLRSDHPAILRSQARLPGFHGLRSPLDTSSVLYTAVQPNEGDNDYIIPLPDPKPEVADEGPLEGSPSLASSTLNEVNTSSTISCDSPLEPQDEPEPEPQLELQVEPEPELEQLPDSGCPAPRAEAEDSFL
T3 sequence (P11362 22-822): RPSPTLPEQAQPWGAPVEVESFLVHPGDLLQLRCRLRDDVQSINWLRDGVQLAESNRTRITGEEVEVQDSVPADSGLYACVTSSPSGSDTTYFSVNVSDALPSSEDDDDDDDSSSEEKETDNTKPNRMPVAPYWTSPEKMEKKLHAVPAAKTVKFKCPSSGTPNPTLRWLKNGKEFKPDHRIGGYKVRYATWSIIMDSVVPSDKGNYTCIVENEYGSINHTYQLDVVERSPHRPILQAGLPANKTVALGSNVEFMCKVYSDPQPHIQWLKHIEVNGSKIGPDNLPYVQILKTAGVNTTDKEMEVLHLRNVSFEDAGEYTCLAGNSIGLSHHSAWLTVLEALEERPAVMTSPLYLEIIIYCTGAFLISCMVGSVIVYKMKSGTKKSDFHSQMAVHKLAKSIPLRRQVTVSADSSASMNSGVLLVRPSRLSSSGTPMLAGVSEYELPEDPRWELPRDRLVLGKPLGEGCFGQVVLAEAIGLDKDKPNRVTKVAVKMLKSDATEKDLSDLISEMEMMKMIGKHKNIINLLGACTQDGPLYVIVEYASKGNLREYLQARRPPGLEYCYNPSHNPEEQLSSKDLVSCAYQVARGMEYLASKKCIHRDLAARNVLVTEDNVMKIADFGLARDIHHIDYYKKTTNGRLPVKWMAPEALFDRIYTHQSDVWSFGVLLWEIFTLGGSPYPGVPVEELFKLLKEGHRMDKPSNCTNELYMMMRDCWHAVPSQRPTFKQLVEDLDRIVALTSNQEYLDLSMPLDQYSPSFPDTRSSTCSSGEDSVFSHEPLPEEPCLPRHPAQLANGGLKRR
T2 sequence (P35968 20-1356): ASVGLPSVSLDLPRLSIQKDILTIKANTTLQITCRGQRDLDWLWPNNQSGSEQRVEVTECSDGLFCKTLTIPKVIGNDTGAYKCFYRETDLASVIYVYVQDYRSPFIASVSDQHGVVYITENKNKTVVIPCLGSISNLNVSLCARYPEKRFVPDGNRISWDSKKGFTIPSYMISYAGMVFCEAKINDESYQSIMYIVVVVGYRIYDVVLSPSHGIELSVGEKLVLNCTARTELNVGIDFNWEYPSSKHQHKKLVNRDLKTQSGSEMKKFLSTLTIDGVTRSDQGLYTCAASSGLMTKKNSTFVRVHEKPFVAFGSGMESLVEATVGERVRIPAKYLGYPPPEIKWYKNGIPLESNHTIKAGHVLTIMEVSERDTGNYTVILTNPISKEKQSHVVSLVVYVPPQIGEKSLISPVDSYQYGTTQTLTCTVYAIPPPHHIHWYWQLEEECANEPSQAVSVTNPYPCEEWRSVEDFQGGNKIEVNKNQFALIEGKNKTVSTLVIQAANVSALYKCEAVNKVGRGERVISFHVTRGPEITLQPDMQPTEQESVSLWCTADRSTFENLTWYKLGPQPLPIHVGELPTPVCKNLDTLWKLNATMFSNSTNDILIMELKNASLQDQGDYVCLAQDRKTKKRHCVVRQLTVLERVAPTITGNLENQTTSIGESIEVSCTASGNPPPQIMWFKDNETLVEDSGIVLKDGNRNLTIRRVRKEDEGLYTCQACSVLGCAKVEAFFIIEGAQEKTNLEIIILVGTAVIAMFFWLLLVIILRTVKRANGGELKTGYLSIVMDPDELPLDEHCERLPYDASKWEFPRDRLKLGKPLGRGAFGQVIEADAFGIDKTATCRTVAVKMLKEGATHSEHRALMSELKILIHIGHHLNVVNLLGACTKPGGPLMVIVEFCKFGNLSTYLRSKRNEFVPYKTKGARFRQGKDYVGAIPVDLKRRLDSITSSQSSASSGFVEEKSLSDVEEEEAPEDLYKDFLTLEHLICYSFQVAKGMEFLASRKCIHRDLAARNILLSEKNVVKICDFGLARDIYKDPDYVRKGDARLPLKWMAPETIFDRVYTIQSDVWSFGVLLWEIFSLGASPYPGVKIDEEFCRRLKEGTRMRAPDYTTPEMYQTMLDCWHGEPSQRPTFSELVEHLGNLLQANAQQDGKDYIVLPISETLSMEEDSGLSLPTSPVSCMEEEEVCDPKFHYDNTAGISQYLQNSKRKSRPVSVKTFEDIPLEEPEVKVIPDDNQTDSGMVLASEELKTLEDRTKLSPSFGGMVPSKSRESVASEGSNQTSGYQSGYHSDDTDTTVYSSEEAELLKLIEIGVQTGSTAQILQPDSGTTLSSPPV

By IC50 is commonly meant the concentration at which inhibition is half-maximal. As for `Cc1nc(-c2ccc3c(Oc4ccc(NC(=O)NC5CC5)c(Cl)c4F)ccnc3c2)cn1C` [Example 229], the 50% inhibitory concentration (IC50) on PDGFRB, on VEGFR2 and at FGFR1 was below 50 nM in each case.

For `COc1cc2nccc(Oc3ccc4nc(NCC(F)F)sc4c3)c2cc1C(N)=O` [Example 157], the half-maximal inhibitory concentration (IC50) at PDGFRB, at VEGFR2 and at FGFR1 was 200 to 1000 nM each time.

As for `COc1cc2nccc(Oc3ccc4c(C(=O)N5CC(F)(F)C5)coc4c3)c2cc1C(N)=O` [Example 187], the IC50 on PDGFRB, at VEGFR2 and on FGFR1 was 200 to 1000 nM in each case.

On to `COc1cc2nccc(Oc3ccc(NC(=S)N4CCCC4)c(Cl)c3)c2cc1NC(C)=O` [Example 181], for which the half-maximal inhibitory concentration (IC50) at PDGFRB, on VEGFR2 and at FGFR1 was 200 to 1000 nM throughout.

On to `COc1cc2nccc(Oc3ccc(Nc4c(NC5CCOCC5)c(=O)c4=O)c(Cl)c3)c2cc1C(N)=O` [Example 139], for which the IC50 on PDGFRB, at VEGFR2 and on FGFR1 was 200 to 1000 nM throughout.

Turning to `COc1cc2nccc(Oc3ccc(NC(=S)N4CC(F)(F)C4)c(Cl)c3)c2cc1C(N)=O` [Example 35], the 50% inhibitory concentration (IC50) at PDGFRB was 50 to 200 nM; at VEGFR2, below 50 nM; on FGFR1 it was 50 to 200 nM.

For the compound `COc1cc2nccc(OC3CC(NC(=O)NC4CC4)C3)c2cc1C(N)=O` (centres unmarked) [Example 129], the half-maximal inhibitory concentration (IC50) on VEGFR2 lay within 200 to 1000 nM.

In the case of `Cc1c(OCC(C)O)cn2ncnc(Oc3ccc(NC(=S)NC4CC4)c(Cl)c3)c12` (centres unmarked) [Example 25], the IC50 at PDGFRB, on VEGFR2 and on FGFR1 was 200 to 1000 nM each time.

For the compound `COc1cc2nccc(Oc3ccc4c(C(=O)N5CC[C@@H](O)C5)coc4c3)c2cc1C(N)=O` [Example 201], the IC50 at PDGFRB, on VEGFR2 and on FGFR1 was 200 to 1000 nM throughout.

Consider `COc1cc2nccc(Oc3ccc(NC(=S)Nc4ccc(Cl)c(F)c4)c(Cl)c3)c2cc1C(N)=O` [Example 3], for which the IC50 on PDGFRB, at VEGFR2 and at FGFR1 was 200 to 1000 nM in each case.

Turning to `COc1cc2nccc(Oc3ccc(NC(=S)NCCc4ccccc4)c(Cl)c3)c2cc1C(N)=O` [Example 14], the values for the IC50 on PDGFRB, on VEGFR2 and on FGFR1 were 50 to 200 nM, 200 to 1000 nM and 200 to 1000 nM, respectively.

Turning to `COc1cc2nccc(Oc3ccc(NC(=S)NC4CC4)c(Cl)c3)c2cc1C(=O)N1CC(F)(F)C1` [Example 53], the results for the IC50 at PDGFRB, on VEGFR2 and on FGFR1 were 50 to 200 nM, 200 to 1000 nM and 200 to 1000 nM, respectively.

Take `COc1cc2nccc(Oc3ccc(Nc4c(NCCN(C)C)c(=O)c4=O)c(Cl)c3)c2cc1C(N)=O` [Example 136]: the half-maximal inhibitory concentration (IC50) at PDGFRB, at VEGFR2 and at FGFR1 was 200 to 1000 nM each time.

`COc1cc2nccc(Oc3ccc(NC(=S)NC4CC4)c(Cl)c3)c2cc1C#N` [Example 80]: the IC50 on PDGFRB was 200 to 1000 nM; at VEGFR2, 50 to 200 nM; at FGFR1 it was 200 to 1000 nM.

Regarding `COc1cc2nccc(Oc3ccc(NC(=S)NCCC#N)c(Cl)c3)c2cc1C(N)=O` [Example 18], the IC50 on PDGFRB, at VEGFR2 and on FGFR1 was 200 to 1000 nM in each case.

In the case of `COC[C@@H]1CCCN1NC(=S)Nc1ccc(Oc2ccnc3cc(OC)c(C(N)=O)cc23)c(F)c1Cl` [Example 105], the IC50 at PDGFRB, on VEGFR2 and on FGFR1 was 200 to 1000 nM throughout.

Consider `COc1cc2nccc(Oc3cc4occ(C(=O)N5CC(F)(F)C5)c4cc3Cl)c2cc1C(N)=O` [Example 198], for which the IC50 on PDGFRB, on VEGFR2 and on FGFR1 was 200 to 1000 nM in each case.

In the case of `COc1cc2nccc(Oc3ccc4c(C(=O)NC5CC5)c[nH]c4c3)c2cc1C(N)=O` [Example 186], the values for the concentration for half-maximal inhibition (IC50) on PDGFRB, at VEGFR2 and on FGFR1 were 200 to 1000 nM, below 50 nM and 200 to 1000 nM, respectively.

As to `COc1cc2nccc(Oc3ccc(NC(=O)C4(C(=O)NC5CC5)CC4)c(Cl)c3)c2cc1C(N)=O` [Example 168], the IC50 on PDGFRB, on VEGFR2 and at FGFR1 was 200 to 1000 nM each time.

On to `COc1cc2nccc(Oc3ccc(Nc4c(NCc5ccccn5)c(=O)c4=O)c(Cl)c3)c2cc1C(N)=O` [Example 150], for which the IC50 on PDGFRB was below 50 nM; on VEGFR2, 200 to 1000 nM; at FGFR1 it was 200 to 1000 nM.

Take `O=C1NCOc2cc3nccc(Oc4ccc(NC(=S)NC5CC5)c(Cl)c4)c3cc21` [Example 45]: the IC50 at PDGFRB, on VEGFR2 and at FGFR1 was 200 to 1000 nM each time.

For the compound `COc1cc2nccc(Oc3ccc4c(C(=O)N5CC[C@H](O)C5)coc4c3)c2cc1C(N)=O` [Example 203], the IC50 on PDGFRB fell in the range of 50 to 200 nM; at VEGFR2 it was 200 to 1000 nM; on FGFR1, 200 to 1000 nM.

In the case of `COc1cc2nccc(Oc3cc(Cl)c4c(C(=O)NC5CC5)coc4c3)c2cc1C(N)=O` [Example 196], the IC50 on PDGFRB, at VEGFR2 and on FGFR1 was 200 to 1000 nM in each case.

As to `COc1cc2nccc(Oc3ccc(NC(=S)NC4CC4)c(C(F)(F)F)c3)c2cc1C(N)=O` [Example 41], the half-inhibitory concentration (IC50) on PDGFRB was 200 to 1000 nM; on VEGFR2 it was below 50 nM; on FGFR1 it was 200 to 1000 nM.

As to `COc1cc2nccc(Oc3ccc4[nH]cc(C#N)c4c3)c2cc1C(N)=O` [Example 162], the half-maximal inhibitory concentration (IC50) on PDGFRB, at VEGFR2 and at FGFR1 was 200 to 1000 nM each time.

As to `COc1cc2nccc(Oc3cc(F)c(NC(=S)N4CC(F)(F)C4)c(F)c3)c2cc1C(N)=O` [Example 90], the IC50 on PDGFRB was 200 to 1000 nM; at VEGFR2, 200 to 1000 nM; on FGFR1, 50 to 200 nM.

Consider `COc1cc2nccc(Oc3ccc4c(c3)CN(CC(F)F)C(=O)N4)c2cc1C(N)=O` [Example 164], for which the IC50 at PDGFRB, at VEGFR2 and on FGFR1 was 200 to 1000 nM each time.

For `COc1cc2nccc(Oc3ccc(NC(=S)NC4CC4)c(Cl)c3)c2cc1NC(C)=O` [Example 182], the half-maximal inhibitory concentration (IC50) on PDGFRB was 200 to 1000 nM; on VEGFR2 it was 50 to 200 nM; on FGFR1, 200 to 1000 nM.

For the compound `COc1cc2nccc(Oc3ccc(NC(=S)NCc4ccccn4)c(Cl)c3)c2cc1C(N)=O` [Example 11], the IC50 was 50 to 200 nM at PDGFRB, 200 to 1000 nM on VEGFR2 and 200 to 1000 nM on FGFR1.

As for `COc1cc2nccc(Oc3ccc(NC(=S)Nc4ccccc4F)c(Cl)c3)c2cc1C(N)=O` [Example 65], the half-inhibitory concentration (IC50) on PDGFRB was below 50 nM; on VEGFR2, 50 to 200 nM; on FGFR1, 200 to 1000 nM.

In the case of `COc1cc2nccc(Oc3cc(Cl)c4c(C(=O)N5CC(F)(F)C5)coc4c3)c2cc1C(N)=O` [Example 195], the IC50 at PDGFRB, on VEGFR2 and on FGFR1 was 200 to 1000 nM throughout.

`COc1cc2nccc(Oc3ccc(N4C(=O)CN(C)C4=S)c(Cl)c3)c2cc1C(N)=O` [Example 81]: the IC50 was 50 to 200 nM on PDGFRB, 200 to 1000 nM at VEGFR2 and 200 to 1000 nM at FGFR1.

Consider `Cc1c(OC[C@@H](C)O)cn2ncnc(Oc3ccc(NC(=O)NC4CC4)c(Cl)c3)c12` [Example 126], for which the IC50 at VEGFR2 was below 50 nM.

Regarding `CCOP(=O)(Cc1ccc(Oc2ccnc3cc(OC)c(C(N)=O)cc23)cc1Cl)NC1CC1` (centres unmarked) [Example 132], the IC50 at VEGFR2 lay in the range of 200 to 1000 nM.

Turning to `COc1cc2nccc(Oc3ccc(Nc4nc(=O)cc(C)[nH]4)c(Cl)c3)c2cc1C(N)=O` [Example 135], on VEGFR2, the IC50 lay within 200 to 1000 nM.

Consider `COc1cc2nccc(Oc3ccc(-c4c[nH]c(C(C)C)n4)c(Cl)c3)c2cc1C(N)=O` [Example 179], for which the IC50 on VEGFR2 was 200 to 1000 nM.

On to `COc1cc2nccc(Oc3ccc(N/C(=C/[N+](=O)[O-])NC4CC4)c(Cl)c3)c2cc1C(N)=O` [Example 134], for which, on VEGFR2, the 50% inhibitory concentration (IC50) was 200 to 1000 nM.

With `COc1cc2nccc(OCC3CC(NC(=O)NC4CC4)C3)c2cc1C(N)=O` (centres unmarked) [Example 128], the 50% inhibitory concentration (IC50) on VEGFR2 is 200 to 1000 nM.

As for `COc1cc2nccc(Oc3ccc4nc(Nc5ccc(Cl)c(F)c5)sc4c3)c2cc1C(N)=O` [Example 159], the IC50 on VEGFR2 fell in the range of 200 to 1000 nM.

Regarding `COc1cc2nccc(Oc3ccc(CP(=O)(O)NC4CC4)c(Cl)c3)c2cc1C(N)=O` [Example 133], the IC50 at VEGFR2 fell in the range of 200 to 1000 nM.

Regarding `COc1cc2nccc(Oc3ccc4oc(C(=O)N5CCCC5)cc4c3)c2cc1C(N)=O` [Example 192], on VEGFR2, the half-inhibitory concentration (IC50) was 200 to 1000 nM.

With `NC(=O)c1ccn2ncc(Oc3ccc(NC(=O)NC4CC4)c(Cl)c3)c2c1` [Example 125], the 50% inhibitory concentration (IC50) at VEGFR2 lay within 200 to 1000 nM.
